Patent US12344587B2, “Synthetic retinoids for use in RAR activation” (UNIVERSITY OF DURHAM, priority 2019, dated 2025)
Converted amounts (≈) assume the structure as drawn.

What was measured:
[1] = tested on: retinoic acid response element (RARE); assay: X-Gal RA based reporter assay (genomic activity); assay type: cell-based; conditions: for Genomic Activity (X-Gal RA Based Reporter Assay) Efficacy (Emax) / EC50: Sil-15 reporter cells, overnight incubation; for EC50: read-out: Genomic Activity (X-Gal RA Based Reporter Assay) Potency (EC50); for Genomic activity and potency compared to retinoic acid (ATRA): X-Gal assay, versus ATRA
Description: The genomic activity of synthetic retinoids was evaluated by determining their efficiency of inducing transcription using the X-Gal Assay. The X-Gal Assay utilizes Sil-15 reporter cells in which the transcription of the LacZ gene is under control of a promoter linked to a retinoic acid response element (RARE). After treatment of the reporter cells with retinoids, the ability of the compounds to induce transcription can be attained by monitoring and quantifying the activity of β-galactosidase produced by the reporter cells.
Sil-15 cells were plated at 100,000 cells per well in 96-well plates coated in 0.1% gelatin. The following day, serial dilutions of retinoid ligands, prepared in Dulbecco's Modified Eagle's Medium (DMEM) containing 10% foetal calf serum (FCS) were added at concentrations from 10^−6 M to 10^−14 M and the plates were incubated overnight. All concentrations for the ATRA standard curve and the other retinoid ligands were tested in triplicate.
The next day, the assay plates were washed twice with phosphate buffered saline (PBS), fixed with 100 μl per well of 1% glutaraldehyde and 1 mM MgCl2 in PBS for 15 minutes and washed twice with PBS. β-galactosidase activity was detected by the addition of 100 μl of freshly-prepared 0.2% X-Gal in 1 mM MgCl2, 3.3 mM potassium ferricyanide and 3.3 mM potassium ferrocyanide in PBS per well. Plates were incubated for 6 hours at 37° C. in 5% CO2 and colour change was detected by reading the plates at 650 nm on an Emax Precision Microplate Reader (Molecular Devices).

ERK1/2 = ERK1/2 phosphorylation assay, AlphaLISA SureFire Ultra (non-genomic activity); assay type: cell-based; parameters: Non-genomic activity (ERK½ Phosphorylation Assay) Efficacy (Emax): unit not given here; conditions: SH-SY5Y cells; for EC50: Homo sapiens, 0.5 h, read-out: Non-genomic activity (ERK½ Phosphorylation Assay) Potency (EC50); for EC50 / Non-genomic activity (ERK½ Phosphorylation Assay) Efficacy (Emax): serum-free, 30 minutes stimulation; for Erk 1/2 phosphorylation potency/efficacy compared to retinoic acid: versus retinoic acid
Description: The non-genomic activity of synthetic retinoids was evaluated by measuring their ability to induce phosphorylation of ERK1/2 using the AlphaLISA® SureFire® Ultra ERK1/2 kit.
In this assay, SH-SY5Y cells (100,000 cells/well) were plated in 96-well plates and serum-starved in DMEM for 24 hours. Retinoids were tested at concentrations from 10−5 M to 10−11 M and at a final concentration of 0.1% DMSO in the medium. The assay was carried out on the SH-SY5Y cells in serum-free DMEM, cells were stimulated by retinoid for 30 minutes at 37° C.
At the end of the assay, the medium was removed, and cells were lysed in 50 μl of freshly prepared 1× lysis buffer (supplied in the kit). The 96-well plate was agitated on an orbital shaker (SO1, Stuart Scientific) at approximately 350 rpm for 10 minutes at room temperature.
In the meantime, the activation buffer was diluted 25-fold in the reaction buffers. Under green light in a dark room, the acceptor beads were diluted 50-fold in the freshly prepared reaction mix while the donor beads were diluted 50-fold in dilution buffer to obtain two final reaction mixtures.
10 μl of cell lysate was then transferred per well into 384-well white Proxiplates plates (PerkinElmer) and 5 μl of each prepared acceptor and donor reaction mixture was added under green light in a dark room. Plates were wrapped with aluminium foil and incubated at room temperature for at least 3 hours. Readings were taken using an Envision system (PerkinElmer Life Sciences) using the AlphaScreen® settings.

SH-SY5Y cells = assay: Induction of neurite outgrowth; assay type: cell-based; conditions: 10 nM, 5 days; for fold induction at 0.01 µM: Homo sapiens, 120 h, read-out: Neurite Outgrowth Fold increase
Description: SY—SY5Y cells were plated at 10,000 cells/well in 12-well plates containing acid-treated/poly-L-lysine-coated coverslips. After 24 hours, each retinoid was added to the medium at a concentration of 10 nM and the plates were incubated for 5 days. After retinoid treatment, SH-SY5Y cells on coverslips were washed twice in PBS, fixed in 4% paraformaldehyde (PFA) for 20 minutes at room temperature, and washed twice with PBS.
For immunocytochemical staining of neurites, cells on coverslips were washed three times in PBS, and incubated in blocking solution (10% donkey serum and 0.1% triton X-100 in PBS) for 1 hour at room temperature. Cells were then labelled by incubation overnight at 4° C. with β-III tubulin primary antibody (Sigma-Aldrich) diluted 1:1000 in blocking buffer. Following incubation overnight, cells were washed three times with PBS containing 0.1% Triton X-100 solution (PBST) before incubation with anti-mouse monoclonal secondary antibody (1:300 in PBST; Jackson Immunoresearch) for 2 hours at room temperature. Finally, after three washes in PBST and a final wash in PBS, the coverslips were mounted on slides and stored at 4° C.
ImageJ software with the NeuronJ plugin was used to quantify neurite outgrowth on stained cells. For each experiment, 10 different randomly selected images were taken from each cover slip using a Nikon Eclipse E400 fluorescence microscope. Each image was converted into an 8-bit image (necessary for the NeuronJ plugin) and optimised with the brightness and contrast tool in GIMP (GNU Image Manipulation Program). For each image, individual traces were drawn for each clearly-identifiable neurite using the tracing tool in the NeuronJ plugin. Neurite length was measured in pixels and transformed into the corresponding length in μm depending on the magnification used. The average neurite length for each image was calculated by dividing total neurite length by the total number of neurites per image. Ten images per cover slip were measured and the mean calculated for the coverslip overall. Coverslips were in triplicate for each retinoid and concentration.

[2] = Turbidimetric aqueous solubility; assay type: physicochemical; conditions: aqueous buffer, kinetic from dmso stock, 0.01 M phosphate buffered saline pH 7.4, 1% DMSO, 37° C.
Description: Test compound (10 mM in DMSO) is serially diluted to give solutions of 0.1, 0.3, 1 and 3 mM in DMSO. Each test compound concentration is then further diluted 1 in 100 in buffer (0.01 M phosphate buffered saline pH 7.4) so that the final DMSO concentration was 1% and the final test compound concentrations were 1, 3, 10, 30 and 100 μM. The experiment was performed at 37° C. and each concentration sample was incubated in 7 replicate wells. The plates were incubated for 2 hr at 37° C. before the absorbance was measured at 620 nm. The solubility of the sample was estimated from the concentration of test compound that produced an increase in absorbance above vehicle control (i.e., 1% DMSO in buffer).

Row | SMILES | EC50 [1] | EC50 (ERK1/2) | solubility at 2 h [2] | Genomic Activity (X-Gal RA Based Reporter Assay) Efficacy (Emax) [1] | Non-genomic activity (ERK½ Phosphorylation Assay) Efficacy (Emax) (ERK1/2) | fold induction at 0.01 µM (SH-SY5Y cells) | Genomic activity and potency compared to retinoic acid (ATRA) [1] | Erk 1/2 phosphorylation potency/efficacy compared to retinoic acid (ERK1/2) | Average neurite length compared to cells treated with ATRA (SH-SY5Y cells)
1 | CC1=C(/C=C/C(C)=C/C=C/C(C)=C/C(=O)O)C(C)(C)CCC1 [ATRA, All-trans-retinoic acid, reference compound] | 1.04 nM | 33.1 nM | – | 170.1 | 48.55 | 1.4 | – | – | –
2 | CC1(C)CCC(C)(C)c2cc(C#Cc3ccc(C(=O)O)c(F)c3)ccc21 [DC525] | 0.21 nM | 2.49 nM | – | 190 | 42.44 | 1.9 | increased genomic activity and potency | higher potency | significantly larger average neurite length
3 | CC1(C)CCC(C)(C)c2cc(C#Cc3ccc(C(=O)O)cn3)ccc21 [DC527] | 0.00347 nM | 30.6 nM | – | 209.8 | 92.51 | 1.9 | increased genomic activity and potency | higher potency and efficacy | significantly larger average neurite length
4 | CC1(C)CCC(C)(C)c2cc(C#Cc3cnc(C(=O)O)cn3)ccc21 [DC529] | 3.89 nM | 30.4 nM | – | 174 | 28.85 | 1.3 | – | – | –
5 | CC1(C)CCC(C)(C)c2cc(C#Cc3cc(F)c(C(=O)O)c(F)c3)ccc21 [DC540] | 0.015 nM | 159 nM | – | 185.3 | 79.73 | 1.7 | increased genomic activity and potency | higher potency and efficacy | –
6 | Cc1cc2c(cc1C#Cc1ccc(C(=O)O)cc1F)C(C)(C)CCC2(C)C [DC559] | 1.38 nM | 15.7 nM | – | 139.8 | 40.68 | 1.4 | – | – | –
7 | COc1cc2c(cc1C#Cc1ccc(C(=O)O)cc1F)C(C)(C)CCC2(C)C [DC564] | 5.31 nM | 18.1 nM | – | 177.1 | 44.46 | 1.3 | – | – | –
8 | CC1(C)CCC(C)(C)c2cc(C#Cc3ccc(C(=O)O)cc3Cl)ccc21 [DC567] | 13.6 nM | 18.1 nM | – | 97.21 | 44.46 | 1.6 | – | – | –
9 | COc1cc2c(cc1C#Cc1ccc(C(=O)O)cn1)C(C)(C)CCC2(C)C [DC646] | 3.16 nM | 144 nM | – | 176.3 | 77.63 | 1.7 | – | – | –

More lines, main results first:

Row | EC50 [1] | EC50 (ERK1/2) | solubility at 2 h [2] | SMILES | Genomic Activity (X-Gal RA Based Reporter Assay) Efficacy (Emax) [1] | Non-genomic activity (ERK½ Phosphorylation Assay) Efficacy (Emax) (ERK1/2) | fold induction at 0.01 µM (SH-SY5Y cells) | Genomic activity and potency compared to retinoic acid (ATRA) [1] | Erk 1/2 phosphorylation potency/efficacy compared to retinoic acid (ERK1/2) | Average neurite length compared to cells treated with ATRA (SH-SY5Y cells)
10 | 0.427 nM | 502 nM | – | Cc1cc2c(cc1C#Cc1ccc(C(=O)O)cn1)C(C)(C)CCC2(C)C [DC656] | 177.2 | 56.77 | 1.6 | – | – | –
11 | 0.146 nM | 3.5 nM | – | COc1cc2c(cc1C#Cc1cc(F)c(C(=O)O)c(F)c1)C(C)(C)CCC2(C)C [DC657] | 154.9 | 72.45 | 1.4 | – | – | –
12 | 0.134 nM | 4.85 nM | – | Cc1cc2c(cc1C#Cc1ccc(C(=O)O)c(F)c1)C(C)(C)CCC2(C)C [DC667] | 169.8 | 44.3 | 1.4 | – | – | –
13 | 603 nM | 90.8 nM | – | COc1cc2c(cc1C#Cc1ncc(C(=O)O)cn1)C(C)(C)CCC2(C)C [DC706] | 265.9 | 36.87 | 1.3 | – | – | –
14 | 0.826 nM | 4.32 nM | – | Cc1cc2c(cc1C#Cc1ncc(C(=O)O)cn1)C(C)(C)CCC2(C)C [DC707] | 192.2 | 44.87 | 1.2 | – | – | –
15 | 0.382 nM | 6.35 nM | – | CC1(C)CCC(C)(C)c2nc(C#Cc3ccc(C(=O)O)cc3F)cnc21 [DC712] | 179.7 | 94 | 1.2 | – | – | –
16 | 0.128 nM | 31.8 nM | 6.5 µM (≈ 2.16 µg/mL) | CC1(C)CCC(C)(C)c2cc(C#Cc3ccc(C(=O)O)cc3)ccc21 [EC23, reference compound] | 169.18 | 91.93 | 2.2 | – | – | –
